Literature values, collected in patent publication US20080188553A1, “NOVEL ASCORBIC ACID COMPOUNDS, METHODS OF SYNTHESIS AND APPLICATION USE THEREOF” (priority 2007, published 2008).

Conditions: relative to ascorbic acid; test conditions not given

In the case of `O=C1O[C@H]([C@@H](O)CO)C(O)=C1OS(=O)(=O)O` [L-ascorbate 2-sulphate], the “more stable than ascorbic acid” value is listed as 20 times.
